Measurements from patent US7045316B2, “Transporter genes OATP-B,C,D, and E” (Chugai Seiyaku Kabushiki Kaisha, priority 1999, dated 2006).
Where two headings read alike, the source gives them in different places.

Target: T1, OATP-C protein (Homo sapiens, UniProt Q9Y6L6)
T1 sequence (Q9Y6L6 1-691): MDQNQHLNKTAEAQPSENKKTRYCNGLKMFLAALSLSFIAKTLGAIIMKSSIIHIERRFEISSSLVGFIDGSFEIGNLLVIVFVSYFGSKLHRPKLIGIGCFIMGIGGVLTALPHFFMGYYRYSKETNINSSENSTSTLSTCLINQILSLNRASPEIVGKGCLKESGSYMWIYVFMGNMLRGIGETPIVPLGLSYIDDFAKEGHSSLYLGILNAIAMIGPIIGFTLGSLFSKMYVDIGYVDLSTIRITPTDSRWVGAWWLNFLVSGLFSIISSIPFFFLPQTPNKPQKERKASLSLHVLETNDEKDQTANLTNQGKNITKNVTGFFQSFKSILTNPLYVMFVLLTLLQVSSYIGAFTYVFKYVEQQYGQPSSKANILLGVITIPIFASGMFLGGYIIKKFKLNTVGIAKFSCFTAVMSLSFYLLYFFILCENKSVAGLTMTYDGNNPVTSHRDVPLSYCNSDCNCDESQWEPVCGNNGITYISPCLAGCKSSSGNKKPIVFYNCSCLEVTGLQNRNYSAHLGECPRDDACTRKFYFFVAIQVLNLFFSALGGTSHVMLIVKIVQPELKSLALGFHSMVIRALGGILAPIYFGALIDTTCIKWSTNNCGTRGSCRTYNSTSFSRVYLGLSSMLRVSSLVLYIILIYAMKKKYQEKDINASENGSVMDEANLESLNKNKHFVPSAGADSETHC
Test: Transport experiment: uptake of labeled substrates into HEK293 cells transfected with OATP-C
Procedure: The human fetal kidney-derived cell strain, HEK 293 cells, were transfected with the plasmid pcDNA3/OATP-C or the pcDNA3 vector containing no insert as a control (mock) by the calcium phosphate method. Specifically, the plasmid DNA (10 μg), a Hepes buffer solution (137 mM NaCl 5 mM KCl, 0.7 mM Na2HPO4, 6 mM dextrose, and 21 mM Hepes pH 7.1) (1 ml), and 2 M CaCl2 (62.5 μl) were mixed and the resultant mixture was allowed to stand at room temperature for 30 min or more to form calcium phosphate coprecipitates. After the cells were plated on 10-cm diameter plates at a concentration of 1.5×10^6 cells per plate, and the cells were cultured for 24 h. The above-described calcium phosphate coprecipitates were added thereto, and the cells were further cultured for 24 h. Then, plates were washed with phosphate buffered saline (PBS), and after the addition of fresh culture medium, the cells were further cultured for 24 h.
Transport experiment was performed using the cells transfected with the plasmid DNA according to the following procedures. The cells were detached from the plates using a rubber policeman, suspended in a transport buffer (containing 125 mM NaCl, 4.8 mM KCl, 5.6 mM (+)-glucose, 1.2 mM CaCl2, 1.2 mM KH2PO4, 1.2 mM MgSO4, and 25 mM Hepes pH 7.4), and pre-incubated for 20 min. […] Incubated cells were overlaid on a silicon layer formed by laying a mixture of silicon oil and liquid paraffin (specific gravity=1.022) on a 3 M KCl layer, and separated by centrifugation. Radioactivity of cells was measured to determine the into-the-cell transport activity. In this case, 1×10^6 cells were used as one point of cells.
Herein, the culture of HEK 293 cells was performed using Dulbecco's MEM containing 10% FCS (fetal calf serum) as the culture medium in an atmosphere of 5% carbon dioxide at 37° C.

[1] = HEK293 cells expressing OATP-C vs mock, labeled substrate, 37° C. (FIG. 3)

With `C[C@]12CC[C@@H]3c4ccc(O)cc4CC[C@H]3[C@@H]1CC[C@@H]2O[C@@H]1O[C@H](C(=O)O)[C@@H](O)[C@H](O)[C@H]1O` [estradiol-17β-glucuronide] the into-the-cell transport activity [1] was “transport was obviously observed”, the “alteration of transport mediated by OATP-C protein” value (chloride ion substituted with gluconate (FIG. 6)) was “No alteration” and the “alteration of transport mediated by OATP-C protein” value (sodium ion replaced with N-methylglucamine (FIG. 6)) was “No alteration”.
`C[C@]12CC[C@@H]3c4ccc(OS(=O)(=O)O)cc4CC[C@H]3[C@@H]1CCC2=O` [estron-3-sulfate] was tested, and the into-the-cell transport activity [1] was “transport was obviously observed”.
With `CN(Cc1cnc2nc(N)nc(N)c2n1)c1ccc(C(=O)N[C@@H](CCC(=O)O)C(=O)O)cc1` [methotrexate] the into-the-cell transport activity was “weak transport activity”.
For `C[C@@H]1O[C@@H](O[C@H]2C[C@@H](O)[C@]3(CO)[C@H]4[C@H](O)C[C@]5(C)[C@@H](C6=CC(=O)OC6)CC[C@]5(O)[C@@H]4CC[C@]3(O)C2)[C@H](O)[C@H](O)[C@H]1O` [ouabain], the into-the-cell transport activity [1] was “weak transport activity”.
For `CCCCC[C@H](O)/C=C/[C@H]1[C@H](O)CC(=O)[C@@H]1C/C=C\CCCC(=O)O` [prostaglandin E2], the into-the-cell transport activity [1] was “weak transport activity”.
